Like-named read-outs stand apart in the source and are kept apart here.
Tests used:
HIV-1 IN [1] = target: T1, HIV-1 IN (Human immunodeficiency virus type 1 group M subtype B, UniProt P12497); experiment: in vitro IN assay, 3′-processing; format: biochemical
[2] = test system: HIV-1 vector carrying G140S/Q148H IN mutant; conditions: cited from earlier work; for FC, fold change relative to WT, G140S/Q148H: EC50 of mutant/EC50 of WT; for EC50: read-out: EC50 G140S/Q148H, HOS cells, vector harboring G140S/Q148H IN
[3] = test system: human osteosarcoma (HOS) cells; conditions: 50% reduction in the level of ATP in HOS cells; cited from earlier work
[4] = test system: HIV-1 vector carrying WT IN; conditions: read-out: EC50 WT; HOS cells, vector harboring WT IN; cited from earlier work
[5] = test system: HIV-1 vector carrying N155H IN mutant; conditions: cited from earlier work; for FC, fold change relative to WT, N155H: EC50 of mutant/EC50 of WT; for EC50: read-out: EC50 N155H, HOS cells, vector harboring N155H IN
[6] = test system: HIV-1 vector carrying Y143R IN mutant; conditions: cited from earlier work; for FC, fold change relative to WT, Y143R: EC50 of mutant/EC50 of WT; for EC50: read-out: EC50 Y143R, HOS cells, vector harboring Y143R IN
[7] = test system: HIV-1 vector carrying Y143R IN mutant; experiment: single-round HIV-1 infectivity assay, vector with Y143R IN; format: cell-based; conditions: for FC, fold change relative to WT, Y143R: EC50 of mutant/EC50 of WT; for EC50: Human immunodeficiency virus 1, HOS, read-out: EC50 Y143R
[8] = test system: HIV-1 vector carrying G140S/Q148H IN mutant; experiment: single-round HIV-1 infectivity assay, vector with G140S/Q148H IN; format: cell-based; conditions: for FC, fold change relative to WT, G140S/Q148H: EC50 of mutant/EC50 of WT; for EC50: Human immunodeficiency virus 1, HOS, read-out: EC50 G140S/Q148H
[9] = test system: HIV-1 vector carrying N155H IN mutant; experiment: single-round HIV-1 infectivity assay, vector with N155H IN; format: cell-based; conditions: for FC, fold change relative to WT, N155H: EC50 of mutant/EC50 of WT; for EC50: Human immunodeficiency virus 1, HOS, read-out: EC50 N155H; for fold improvement relative to DTG, N155H: EC50 of compound/EC50 of DTG
HIV-1 IN [10] = target: T1, HIV-1 IN; experiment: in vitro IN assay, strand transfer; format: biochemical
in vitro = conditions: human
[11] = test system: HIV-1 vector carrying T66I IN mutant; experiment: single-round HIV-1 infectivity assay, vector with T66I IN; format: cell-based; conditions: EC50 of compound/EC50 of DTG
[12] = test system: HIV-1 vector carrying WT IN; experiment: single-round HIV-1 infectivity assay, vector with WT IN; format: cell-based; conditions: EC50 of compound/EC50 of DTG
[13] = test system: HIV-1 vector carrying G118R IN mutant; experiment: single-round HIV-1 infectivity assay, vector with G118R IN; format: cell-based; conditions: EC50 of compound/EC50 of DTG
[14] = test system: HIV-1 vector carrying E92Q IN mutant; experiment: single-round HIV-1 infectivity assay, vector with E92Q IN; format: cell-based; conditions: EC50 of compound/EC50 of DTG
[15] = test system: HIV-1 vector carrying H51Y/R263K IN mutant; experiment: single-round HIV-1 infectivity assay, vector with H51Y/R263K IN; format: cell-based; conditions: EC50 of compound/EC50 of DTG
[16] = test system: HIV-1 vector carrying H51Y IN mutant; experiment: single-round HIV-1 infectivity assay, vector with H51Y IN; format: cell-based; conditions: EC50 of compound/EC50 of DTG
[17] = test system: HIV-1 vector carrying R263K IN mutant; experiment: single-round HIV-1 infectivity assay, vector with R263K IN; format: cell-based; conditions: EC50 of compound/EC50 of DTG
[18] = test system: HIV-1 vector carrying H51Y/R263K IN mutant; conditions: cited from earlier work; for EC50: read-out: EC50 H51Y/R263K, vector harboring H51Y/R263K IN
[19] = test system: HIV-1 vector carrying G118R IN mutant; conditions: cited from earlier work; for EC50: read-out: EC50 G118R, vector harboring G118R IN
[20] = test system: HIV-1 vector carrying T66I IN mutant; conditions: cited from earlier work; for EC50: read-out: EC50 T66I, vector harboring T66I IN
[21] = test system: HIV-1 vector carrying E92Q IN mutant; conditions: cited from earlier work; for EC50: read-out: EC50 E92Q, vector harboring E92Q IN
[22] = test system: HIV-1 vector carrying R263K IN mutant; conditions: cited from earlier work; for EC50: read-out: EC50 R263K, vector harboring R263K IN
[23] = test system: HIV-1 vector carrying H51Y IN mutant; conditions: cited from earlier work; for EC50: read-out: EC50 H51Y, vector harboring H51Y IN

For `COC(=O)CNc1c(C(=O)NCc2ccc(F)cc2F)c(=O)n(O)c2nc(N3CCCCC3)ccc12` [5h, Methyl 2-((3-((2,4-Difluorobenzyl)carbamoyl)-1-hydroxy-2-oxo-7-(piperidin-1-yl)-1,2-dihydro-1,8-naphthyridin-4-yl)amino)acetate], the IC50 (HIV-1 IN [1]) was greater than 333000 nM.

Compound `COC(=O)CNc1c(C(=O)NCc2ccc(F)cc2F)c(=O)n(O)c2nc(N3CCOCC3)ccc12` [5i, Methyl 2-((3-((2,4-Difluorobenzyl)carbamoyl)-1-hydroxy-7-morpholino-2-oxo-1,2-dihydro-1,8-naphthyridin-4-yl)amino)acetate] has an IC50 (HIV-1 IN [1]) greater than 333000 nM.

In the case of `O=C(NCc1ccc(F)cc1F)c1c(O)c2cccnc2n(O)c1=O` [5′a], the “FC, fold change relative to WT, G140S/Q148H” value [2] is listed as 50 ×, the EC50 [2] is listed as 308 ± 125 nM and the CC50 [3] is listed as 137000 ± 20000 nM. For the same compound, the EC50 [4] was 6.2 ± 2.9 nM, the “FC, fold change relative to WT, N155H” value [5] was 5 × and the EC50 [5] was 31 ± 8 nM. The “FC, fold change relative to WT, Y143R” value [6] was 2 × and the EC50 [6] was 11 ± 2 nM.

In the case of `Nc1c(C(=O)NCc2ccc(F)cc2F)c(=O)n(O)c2ncccc12` [5′d], the CC50 [3] is given as greater than 250000 nM and the EC50 [4] is given as 1.1 ± 0.7 nM.

In the case of `COC(=O)CNc1c(C(=O)NCc2ccc(F)cc2F)c(=O)n(O)c2ncccc12` [5′g], the “FC, fold change relative to WT, Y143R” value [7] is reported as 1 ×, the EC50 [7] is reported as 4.6 ± 2.2 nM and the “FC, fold change relative to WT, G140S/Q148H” value [8] is reported as 9 ×. The EC50 [8] was 36 ± 16 nM, the “FC, fold change relative to WT, N155H” value [9] was 5 × and the EC50 [9] was 19 ± 7 nM.

With `CC(=O)OCCCc1cnc2c(c1)c(N)c(C(=O)NCc1ccc(F)cc1F)c(=O)n2O` [6b, 3-(5-Amino-6-((2,4-difluorobenzyl)carbamoyl)-8-hydroxy-7-oxo-7,8-dihydro-1,8-naphthyridin-3-yl)propyl Acetate] the IC50 (HIV-1 IN [10]; ST IC50, as stated in text) was no more than 10 nM.

For `Nc1c(C(=O)NCc2ccc(F)cc2F)c(=O)n(O)c2ncc(CCCCCCOC(=O)c3ccccc3)cc12` [6c, 6-(5-Amino-6-((2,4-difluorobenzyl)carbamoyl)-8-hydroxy-7-oxo-7,8-dihydro-1,8-naphthyridin-3-yl)hexyl Benzoate], the CC50 (in vitro) was 14400 ± 4800 nM, the “FC, fold change relative to WT, Y143R” value [7] was 0.7 × and the EC50 [7] was 3.5 ± 1.2 nM. The IC50 (HIV-1 IN [10]; in vitro IC50 ST, gel-based protocol, Mg2+ cofactor) was 3300 ± 600 nM, the “FC, fold change relative to WT, G140S/Q148H” value [8] was 4 × and the EC50 [8] was 21 ± 7.8 nM. For the same compound, the “FC, fold change relative to WT, N155H” value [9] was 1 × and the EC50 [9] was 5.4 ± 1.9 nM.

With `Nc1c(C(=O)NCc2ccc(F)cc2F)c(=O)n(O)c2ncc(CCC(=O)O)cc12` [6i, 3-(5-Amino-6-((2,4-difluorobenzyl)carbamoyl)-8-hydroxy-7-oxo-7,8-dihydro-1,8-naphthyridin-3-yl)propanoic Acid] the IC50 (HIV-1 IN [10]; ST IC50, as stated in text) was no more than 10 nM.

`Nc1c(C(=O)NCc2ccc(F)cc2F)c(=O)n(O)c2ncc(CCC(=O)NCCO)cc12` [6n, 4-Amino-N-(2,4-difluorobenzyl)-1-hydroxy-6-(3-((2-hydroxyethyl)amino)-3-oxopropyl)-2-oxo-1,2-dihydro-1,8-naphthyridine-3-carboxamide] showed an IC50 (HIV-1 IN [10]; ST IC50, as stated in text) of less than 10 nM.

Compound `Nc1c(C(=O)NCc2ccc(F)cc2F)c(=O)n(O)c2ncc(/C=C/C(=O)NCCO)cc12` [6o, (E)-4-Amino-N-(2,4-difluorobenzyl)-1-hydroxy-6-(3-((2-hydroxyethyl)amino)-3-oxoprop-1-en-1-yl)-2-oxo-1,2-dihydro-1,8-naphthyridine-3-carboxamide] has an IC50 (HIV-1 IN [10]; ST IC50, as stated in text) of less than 10 nM.

For `COC(=O)CCc1cnc2c(c1)c(N)c(C(=O)NCc1ccc(F)cc1F)c(=O)n2O` [6p, Methyl 3-(5-Amino-6-((2,4-difluorobenzyl)carbamoyl)-8-hydroxy-7-oxo-7,8-dihydro-1,8-naphthyridin-3-yl)propanoate], the “fold improvement relative to DTG, T66I” value [11] was 0.53 ± 0.06 (0.59×), the “fold improvement relative to DTG, Y143R” value ([7]; EC50 of compound/EC50 of DTG) was 0.67 ± 0.23 (0.16×) and the “fold improvement relative to DTG, WT” value [12] was 0.67 ± 0.15 (0.42×). The “fold improvement relative to DTG, G118R” value [13] was 4.8 ± 1.5 (0.37×), the “fold improvement relative to DTG, E92Q” value [14] was 2.0 ± 1.1 (0.87×) and the “fold improvement relative to DTG, H51Y/R263K” value [15] was 2.4 ± 0.8 (0.15×). For the same compound, the IC50 (HIV-1 IN [10]; ST IC50, as stated in text) was no more than 10 nM, the “fold improvement relative to DTG, G140S/Q148H” value ([8]; EC50 of compound/EC50 of DTG) was 5.3 ± 1.8 (0.91×) and the “fold improvement relative to DTG, H51Y” value [16] was 0.63 ± 0.30 (0.20×). For the same compound, the “fold improvement relative to DTG, N155H” value [9] was 2.3 ± 0.2 (0.64×) and the “fold improvement relative to DTG, R263K” value [17] was 0.5 ± 0.0 (0.05×).

For `Nc1c(C(=O)NCc2ccc(F)cc2F)c(=O)n(O)c2ncc(CCCCCO)cc12` [6′b], the CC50 [3] is given as greater than 250000 nM, the “fold improvement relative to DTG, WT” value [12] is given as 1.3 ± 0.2 (0.81×) and the “fold improvement relative to DTG, G118R” value [13] is given as 5.3 ± 1.6 (0.41×). For the same compound, the “fold improvement relative to DTG, H51Y/R263K” value [15] was 2.6 ± 1.4 (0.16×), the “fold improvement relative to DTG, N155H” value [9] was 2.4 ± 0.8 (0.67×) and the “fold improvement relative to DTG, R263K” value [17] was 2.6 ± 0.1 (0.24×).

For `C[C@@H]1CCO[C@H]2Cn3cc(C(=O)NCc4ccc(F)cc4F)c(=O)c(O)c3C(=O)N12` [DTG (3), dolutegravir], the EC50 [18] is listed as 16 ± 2 nM, the EC50 [19] is listed as 13 ± 5 nM and the EC50 [20] is listed as 0.9 ± 0.8 nM. For the same compound, the CC50 [3] was greater than 250000 nM, the EC50 [4] was 1.6 ± 0.9 nM and the EC50 [21] was 2.3 ± 0.4 nM. For the same compound, the EC50 [5] was 3.6 ± 1.3 nM and the EC50 [22] was 11 ± 3 nM.

In the case of `COc1cc2c(cc1Cc1cccc(Cl)c1F)c(=O)c(C(=O)O)cn2[C@H](CO)C(C)C` [EVG (2), elvitegravir], the “FC, fold change relative to WT, H51Y” value ([23]; EC50 of mutant/EC50 of WT) is given as 0.7 ×, the EC50 [23] is given as 4.5 ± 2.1 nM and the “FC, fold change relative to WT, H51Y/R263K” value ([18]; EC50 of mutant/EC50 of WT) is given as 8 ×. The EC50 [18] was 53 ± 18 nM, the “FC, fold change relative to WT, G118R” value ([19]; EC50 of mutant/EC50 of WT) was 3 × and the EC50 [19] was 21 ± 10 nM. The “FC, fold change relative to WT, T66I” value ([20]; EC50 of mutant/EC50 of WT) was 10 ×, the EC50 [20] was 66 ± 1 nM and the “FC, fold change relative to WT, G140S/Q148H” value [2] was 891 ×. The EC50 [2] was 5700 ± 1100 nM, the CC50 [3] was greater than 250000 nM and the EC50 [4] was 6.4 ± 0.8 nM. For the same compound, the “FC, fold change relative to WT, E92Q” value ([21]; EC50 of mutant/EC50 of WT) was 24 ×, the EC50 [21] was 154 ± 34 nM and the “FC, fold change relative to WT, N155H” value [5] was 14 ×. For the same compound, the EC50 [5] was 90 ± 18 nM, the “FC, fold change relative to WT, R263K” value ([22]; EC50 of mutant/EC50 of WT) was 2 × and the EC50 [22] was 10 ± 6 nM. The “FC, fold change relative to WT, Y143R” value [6] was 1 × and the EC50 [6] was 7.9 ± 2.3 nM.

For `Cc1nnc(C(=O)NC(C)(C)c2nc(C(=O)NCc3ccc(F)cc3)c(O)c(=O)n2C)o1` [RAL (1), raltegravir], the EC50 [23] is given as 3.4 ± 0.2 nM, the EC50 [18] is given as 6 ± 2.3 nM and the EC50 [19] is given as 36 ± 5 nM. The EC50 [20] was 2.8 ± 0.4 nM, the CC50 [3] was greater than 250000 nM and the EC50 [4] was 4 ± 2 nM. The EC50 [21] was 30 ± 10 nM and the EC50 [22] was 5.7 ± 2.3 nM.

From PMC5601359 (Journal of Medicinal Chemistry, 2017)
